Patent US10206955B2, “Compositions of ascorbic acid and bone morphogenetic protein 4 (BMP-4) for cell growth and uses related thereo” (EMORY UNIVERSITY, priority 2014, dated 2019)

Tests used:
aMHC-GFP-MTTFs = assay: Quantification of GFP+ cells in aMHC-GFP reporter MTTFs; assay type: cell-based, mouse; conditions: for GFP expression (aMHC-GFP): agent alone
Procedure: (§1) To enhance the reprogramming potential of miRNAs, AA and BMP4 were added one day after miR-transfection (FIG. 1A). Between 4-6 days, spontaneously contracting cells appeared in groups treated with […], miR-208b-3p, or miR-499-5p, but not with miR-208a-3p and miR-208b-5p or all miRNA. The latter groups were excluded from further experiments. To further confirm the results, MTTFs were isolated from aMHC-GFP reporter mice (aMHC-GFP-MTTFs) and quantified GFP+ cells after treating with […], miR-208b-3p, or miR-499-5p in combination with AA and BMP4. […] TNNT2+ cells occupied 1.8±0.6% of MTTFs treated with miR-208b-3p, AA and BMP4 by flow cytometry analyses. This reprogramming rate is smaller than the number of aMHC-GFP+ cells because TNNT2 is a more specific and mature marker for CMs.
(§2) Mouse tail-tip fibroblasts (MTTFs) isolated from 1-4 month old transgenic mice carrying a GFP reporter driven by αMHC or human ubiquitin C (UBC) promoters were cultured in DMEM/F-12 (Invitrogen) containing 10% FBS (Atlanta Biologicals), 1% Glutamax (Invitrogen), 1% non-essential amino acids (Invitrogen) and 1% Antibiotic-Antimycotic (Invitrogen). αMHC-GFP transgenic mice were kindly given by Dr. Mark Sussman (San Diego State University) and UBC-GFP mice (C57BL/6-Tg(UBC-GFP)30Scha/J) were purchased from the Jackson Laboratory. After 3-5 passages, MTTFs were frozen until use. […]

Myh6 = assay: mRNA expression of Myh6 (aMHC) in treated MTTFs; assay type: cell-based, mouse; conditions: miRNA with AA and BMP4
Procedure: as §1, §2

[1] = test system: mouse tail-tip fibroblasts (MTTFs); assay: Spontaneous contraction of miRNA-transfected MTTFs after adding AA and BMP4; assay type: cell-based; conditions: AA and BMP4 added one day after miR-transfection; between 4-6 days
Procedure: as §1
(§3) Mouse tail-tip fibroblasts (MTTFs) isolated from 1-4 month old transgenic mice carrying a GFP reporter driven by αMHC or human ubiquitin C (UBC) promoters were cultured in DMEM/F-12 (Invitrogen) containing 10% FBS (Atlanta Biologicals), 1% Glutamax (Invitrogen), 1% non-essential amino acids (Invitrogen) and 1% Antibiotic-Antimycotic (Invitrogen). αMHC-GFP transgenic mice were kindly given by Dr. Mark Sussman (San Diego State University) and UBC-GFP mice (C57BL/6-Tg(UBC-GFP)30Scha/J) were purchased from the Jackson Laboratory. After 3-5 passages, MTTFs were frozen until use. MTTFs at 70-80% of confluence were transfected with a synthetic miRNA mimic (20 nM), miR-1a-2-5p (Qiagen, MSY0017047, 5′-[…]-3′)(SEQ ID NO: 135), miR-208a-3p (Qiagen, MSY0000520, 5′-[…]-3′)(SEQ ID NO: 136), miR-208b-3p (Qiagen, MSY0004939, 5′-[…]-3′)(SEQ ID NO: 1), miR-208b-5p (Qiagen, MSY0017280, 5′-[…]-3′)(SEQ ID NO: 137), miR-499-5p (Qiagen, MSY0003482, 5′-[…]-3′) (SEQ ID NO: 3) or Scramble-miR (Dharmacon, CN-001000-01-05) using Lipofectamine 2000 (Invitrogen), and cultured in advanced DMEM/F12 (Invitrogen) containing 5% FBS (Atlanta Biologicals), 0.5% Glutamax (Invitrogen), 0.5% non-essential amino acids and 1% Antibiotic-Antimycotic (Invitrogen) with or without AA (ascorbic acid, Sigma, 0.2 mM) and BMP4 (R&D Systems, 10 ng/ml) for fibroblast reprogramming. Cells on a culture dish spontaneously aggregated as a patch-like CMT on day 10. In the case of no spontaneous formation, the border of a culture dish was scratched and cells were lifted up with a pipette to expedite cell aggregation into a CMT.

[2] = test system: mouse tail-tip fibroblasts (MTTFs); assay: Reprogramming of MTTFs with miRNA mimics alone: CM gene expression, ACTN2 immunocytochemistry; assay type: cell-based; conditions: miRNA mimic alone, without AA and BMP4
Text: The reprogramming potential of muscle-specific miRNA mimics, miR-1a-2-5p, miR-208a-3p, miR-208b-3p, miR-208b-5p, and miR-499-5p was investigated in mouse tail-tip fibroblasts (MTTFs). […] Immunocytochemistry confirmed expression of a CM marker sarcomeric α-actinin (ACTN2) in single miRNA transfected cells. However ACTN2 expression was diffuse, sarcomeric organization was poor and spontaneously contracting cells were not observed in any miRNA transfected MTTFs.
as §2

[3] = test system: mouse tail-tip fibroblasts (MTTFs); assay: qRT-PCR of lineage markers at day 6 (vascular-lineage reprogramming); assay type: cell-based; conditions: protocol with AA and BMP4
Procedure: as §3, with “Cells on a culture dish spontaneously aggregated as a patch-like CMT on day 10. In the case of no spontaneous formation, the border of a culture dish was scratched and cells were lifted up with a pipette to expedite cell aggregation into a CMT.” left out

For O=C1O[C@H]([C@@H](O)CO)C(O)=C1O [AA, (R)-5-((S)-1,2-dihydroxyethyl)-3,4-dihydroxyfuran-2(5H)-one, reference compound], the “GFP expression (aMHC-GFP)” value (aMHC-GFP-MTTFs) was “did not induce GFP expression”.

With “miR-1a-2-5p: synthetic miRNA mimic, Qiagen MSY0017047, 5′-ACAUACUUCUUUAUGUAGUACCCAUA-3′ (SEQ ID NO: 135) (chemistry not given here)” the “mRNA expression of Myh6” value (Myh6) was “increased trend” and the spontaneously contracting cells [1] was “appeared”.

For “miR-208a-3p: synthetic miRNA mimic, Qiagen MSY0000520, 5′-AUAAGACGAGCAAAAAGCUUGU-3′ (SEQ ID NO: 136) (chemistry not given here)”, the spontaneously contracting cells [1] was “not”.

“miR-208b-3p: synthetic miRNA mimic, Qiagen MSY0004939, 5′-AUAAGACGAACAAAAGGUUUGU-3′ (SEQ ID NO: 1) (listed as RNA, chemistry not given here; listed as Mus musculus)” was tested, and the “mRNA expression of Myh6” value (Myh6) was “significantly increased”, the “GFP expression (aMHC-GFP-positive cells) of MTTFs” value (aMHC-GFP-MTTFs; miRNA in combination with AA and BMP4) was 22.0±2.6% and the spontaneously contracting cells [1] was “appeared”. The “expression of CM genes Mef2c, Nkx2-5, Gata4 and Myh6” value [2] was “most effective” and the “expression of EC and SMC genes (qRT-PCR)” value [3] was “increased expression”.

With “miR-208b-5p: synthetic miRNA mimic, Qiagen MSY0017280, 5′-AAGCUUUUUGCUCGCGUUAUGU-3′ (SEQ ID NO: 137) (chemistry not given here)” the spontaneously contracting cells [1] was “not”.

In the case of “miR-499-5p: synthetic miRNA mimic, Qiagen MSY0003482, 5′-UUAAGACUUGCAGUGAUGUUU-3′ (SEQ ID NO: 3) (listed as RNA, chemistry not given here; listed as Mus musculus)”, the spontaneously contracting cells [1] is reported as “appeared”.

B1: BMP4: secreted disulfide-linked homodimeric BMP-4, a TGF-beta superfamily ligand (R&D Systems) (protein, listed as Homo sapiens)
chain: SPKHHPQRSRKKNKNCRRHSLYVDFSDVGWNDWIVAPPGYQAFYCHGDCPFPLADHLNSTNHAIVQTLVNSVNSSIPKACCVPTELSAISMLYLDEYDKVVLKNYQEMVVEGCGCR
modifications: homodimer
In the case of B1, the “GFP expression (aMHC-GFP)” value (aMHC-GFP-MTTFs) is reported as “did not induce GFP expression”.
